From publication PMC4829596 (Frontiers in Microbiology, 2016)
Converted amounts (≈) assume the structure as drawn. Read-outs that look alike come from different tables or passages of the source.

Key:
S. aureus = experiment: Determination of MIC; format: cell-based, Staphylococcus aureus; details: S. aureus; for Inhibitory concentration: lowest concentration at which the inhibitory effect was detectable
Protocol: (§1) Minimal inhibitory concentrations (MICs) of purified compounds and commercially available standards were assessed against S. aureus, C. albicans, P. aeruginosa, K. pneumoniae, E. coli, ESBL K. pneumoniae, ESBL E. coli and the two MRSA strains (B337919 and B335466). Stock solutions of 5 × 10^6 μg/l of p-hydroxybenzaldehyde, and phenyllactic acid were prepared using water. Stock solutions of 1 × 10^8 μg/l indole-3-carboxylic acid, PAA and indole-3-acetic acid were prepared using methanol and diluted with water (working solution of 5 × 10^6 μg/l). Stocks of 1 × 10^6 μg/l of cFP and cPM were dissolved in water. […] Methanol and water were used as control.

[1] = test system: MRSA Staphylococcus (S.) aureus B335466; experiment: Determination of MIC; format: cell-based; details: for Inhibitory concentration: lowest concentration at which the inhibitory effect was detectable
Protocol: as §1

[2] = test system: MRSA Staphylococcus (S.) aureus B337919; experiment: Determination of MIC; format: cell-based; details: for Inhibitory concentration: lowest concentration at which the inhibitory effect was detectable
Protocol: as §1

P. aeruginosa = experiment: Determination of MIC; format: cell-based, Pseudomonas aeruginosa; details: for Inhibitory concentration: lowest concentration at which the inhibitory effect was detectable
Protocol: as §1

C. albicans = experiment: Determination of MIC; format: cell-based, Candida albicans; details: C. albicans; for Inhibitory concentration: lowest concentration at which the inhibitory effect was detectable
Protocol: as §1

E. coli = experiment: Determination of MIC; format: cell-based, Escherichia coli; details: E. coli; for Inhibitory concentration: lowest concentration at which the inhibitory effect was detectable
Protocol: as §1

ESBL E. coli = experiment: Determination of MIC; format: cell-based, Escherichia coli; details: ESBL E. coli; for Inhibitory concentration: lowest concentration at which the inhibitory effect was detectable
Protocol: as §1

ESBL K. pneumoniae = experiment: Determination of MIC; format: cell-based, Klebsiella pneumoniae; details: ESBL K. pneumoniae; for Inhibitory concentration: lowest concentration at which the inhibitory effect was detectable
Protocol: as §1

K. pneumoniae = experiment: Determination of MIC; format: cell-based, Klebsiella pneumoniae; details: K. pneumoniae; for Inhibitory concentration: lowest concentration at which the inhibitory effect was detectable
Protocol: as §1

all tested organisms = experiment: Determination of MIC, statements over all tested organisms; format: cell-based; details: against the tested microorganisms
Protocol: as §1

[3] = test system: human hepatocytic (HepG2) cells; experiment: Cytotoxicity assay, lactate dehydrogenase release; format: cell-based; details: 24 h, LDH
Protocol: (§2) Cytotoxicity of the fungal extract and the identified compounds was determined measuring lactate dehydrogenase release using human intestinal epithelial (Caco2) and human hepatocytic (HepG2) cells. […] Cells were seeded into 96-well plates (5 × 10^4 cells per well) and incubated until a confluent cell layer had developed. After discarding of the media cells were incubated with 50 μl of media and 50 μl of fungal extract or compound (final concentration: PAA 2 × 10^6 μg/l, 4FP 2 × 10^6 μg/l, ICA 2 × 10^6 μg/l, IAA 2 × 10^5 μg/l, PLA 2 × 10^6 μg/l, cPM 2 × 10^6μg/l and cFP 2 × 10^6 μg/l) for 24 h at 37°C. […] LDH release was measured according to the manufacturer’s protocol (Sigma–Aldrich, USA).

[4] = test system: human intestinal epithelial (Caco2) cells; experiment: Cytotoxicity assay, lactate dehydrogenase release; format: cell-based; details: 24 h, LDH
Protocol: as §2

Caco2 cells = experiment: XTT assay, metabolic active cells; format: cell-based, human; details: XTT
Protocol: (§3) In parallel the % of metabolic cells was measured using the XTT [2,3-Bis-(2-methoxy-4-nitro-5-sulfophenyl)-2H-tetra zolium-5-carboxanilide] assay (Thermo Scientific). Briefly, after treatment with the fungal extract or the different compounds cells were incubated with XTT and phenanzine methosulfate (Thermo Scientific) for 2 h. Absorbance was measured at 450 nm and % of metabolic active cells was calculated versus the control sample (media). As controls we incubated the cells without fungal cultures or compound, and with VPA alone.

HepG2 cells = experiment: XTT assay, metabolic active cells; format: cell-based, human
Protocol: as §3

Caco2 and HepG2 cells = format: cell-based; details: at the determined MIC concentrations; range over compounds and cell lines
Protocol: as §2

[5] = test system: Bacillus subtilis, S. aureus and Micrococcus luteus; parameters: method as in Jayatilake et al., 1996; Thomas et al., 2010; details: ref Jayatilake et al., 1996; Thomas et al., 2010; cited from earlier work
[6] = parameters: method as in Rodloff et al., 2008; details: ref Rodloff et al., 2008; cited from earlier work
[7] = test system: acetylation of histone H3 K9 and K14; experiment: Histone posttranslational modifications by Western blot; format: cell-based, Doratomyces microsporus; details: VPA-treated D. microsporus cultures, 24, 48, 72 h
Protocol: Mycelia from the D. microsporus cultures were harvested after 24, 48, and 72 h by filtration and frozen in liquid nitrogen. Histones were extracted under acidic conditions as described by [Honda and Selker (2008)]. Samples were suspended in Laemmli’s SDS sample buffer and quantified with Pierce BCA Protein Assay (Thermo Scientific). Fifteen microgram of purified histones were separated on 15% SDS-PAGE gel and subsequently transferred to nitrocellulose membrane (GE Healthcare) by electroblotting. Histone H3 acetylation (H3Ac) was detected with primary antibody specific to H3Ac (Millipore, 06-599). As a loading control histone H3 C-terminus was detected with anti H3 C-terminus antibody (Abcam, 1791). The primary antibodies were identified with anti- rabbit (Sigma–Aldrich, A0545) horseradish peroxidase (HRP) conjugated secondary antibody. Chemiluminescence was detected with Clarity^TM ECL Western Substrate and ChemiDoc^TM XRS (Bio- Rad).

higher fungi = test system: higher fungi; parameters: method as in Strom et al., 2002; details: ref Strom et al., 2002; cited from earlier work
MRSA strain B335466 = experiment: Ampicillin MIC alone and in combination; format: cell-based; details: Staphylococcus aureus
Protocol: (§4) Furthermore we studied the ability of PAA, cPM and cFP to increase antimicrobial activity of ampicillin against both ESBL and MRSA strains. The combination of cPM (100 mg/l) with ampicillin decreased the MIC value from 100 to 10 mg/l against the MRSA strain B335466 (Figure 5C).

MRSA strain B337919 = experiment: Ampicillin MIC alone and in combination; format: cell-based; details: Staphylococcus aureus
Protocol: as §4

ESBL E. coli strain = experiment: Ampicillin in combination; format: cell-based, Escherichia coli; details: ampicillin combined with PAA, cPM or cFP
Protocol: as §4

[8] = test system: ESBL K. pneumoniae strain; experiment: Ampicillin in combination; format: cell-based, Klebsiella pneumoniae; details: ampicillin combined with PAA, cPM or cFP
Protocol: as §4

[9] = Escherichia coli, read-out: MIC
[10] = Klebsiella pneumoniae, read-out: MIC

Row | Compound | Inhibitory concentration (S. aureus) [g/L] | Inhibitory concentration ([1]; MRSA 335) [g/L] | Inhibitory concentration ([2]; MRSA 337) [g/L] | Inhibitory concentration (P. aeruginosa) [g/L] | Inhibitory concentration (C. albicans) [g/L] | Inhibitory concentration (E. coli) [g/L] | Inhibitory concentration (ESBL E. coli) [g/L] | Inhibitory concentration (ESBL K. pneumoniae) [g/L] | Inhibitory concentration (K. pneumoniae) [g/L] | % of living HepG2 cells ([3]; compound 2mg/ml) [%] | % of living Caco2 cells ([4]; compound 2mg/ml) [%] | % of metabolic active Caco2 cells (Caco2 cells; compound 2mg/ml) [%] | % of metabolic active HepG2 cells (HepG2 cells; compound 2mg/ml) [%] | dead cells (Caco2 and HepG2 cells) | antimicrobial activity [5] | also measured
1 | CSCCC1NC(=O)C2CCCN2C1=O [cPM, cyclo-(L-proline-L-methionine)] | 2.5 | 2.5 | 2.5 | 5 | 5 | 5 | 5 | 5 | 5 | 3.99 | 4.77 | 99.18 | 107.47 | 3.99–8.61% | no antimicrobial activity | growth inhibitory activity (all tested organisms): 2 g/L
2 | co-trimoxazole | – | – | – | – | – | – | – | – | – | – | – | – | – | – | – | accepted MIC values for antibiotics in clinical use [6]: 100 µg/mL
3 | CCCC(CCC)C(=O)O [VPA, valproic acid] | – | – | – | – | – | – | – | – | – | – | – | – | – | – | – | acetylation of the N-terminal lysines of histone 3 compared to the untreated control culture [7]: could not detect any significant increase in acetylation
4 | O=C1NC(Cc2ccccc2)C(=O)N2CCCC12 [cFP, cyclo-(L-phenylalanine-L-proline)] | 2 | 2 | 2 | 5 | 2.5 | 5 | 5 | 3 | 3 | 5.11 | 4.28 | 106.66 | 116.63 | 3.99–8.61% | no antimicrobial activity | MIC (higher fungi): 20000 µg/mL (≈ 81900 µM)
5 | CC1(C)S[C@@H]2[C@H](NC(=O)[C@H](N)c3ccccc3)C(=O)N2[C@H]1C(=O)O [ampicillin] | – | – | – | – | – | – | – | – | – | – | – | – | – | – | – | MIC (MRSA strain B335466; ampicillin alone): 100 µg/mL; MIC (MRSA strain B335466; combined with PAA (1 g/l)): 50 µg/mL; MIC (MRSA strain B335466; combined with cPM (100 mg/l)): 10 µg/mL; MIC (MRSA strain B337919; ampicillin alone): 100 µg/mL; MIC (MRSA strain B337919; combined with cPM (2 g/l)): 50 µg/mL; synergistic or additive effect (ESBL E. coli strain): No synergistic or additive effect; synergistic or additive effect [8]: No synergistic or additive effect
6 | O=C(O)Cc1c[nH]c2ccccc12 [IAA, indole-3-acetic acid] | – | – | – | – | – | – | – | – | – | – | – | – | – | – | – | MIC (S. aureus; Staphylococcus aureus, read-out: MIC): 400 µg/mL (≈ 2280 µM); MIC ([1]; MRSA 335): 400 µg/mL (≈ 2280 µM); MIC ([1]; MRSA strain B335466, read-out: MIC): 400 µg/mL (≈ 2280 µM); MIC ([2]; MRSA 337): 200 µg/mL (≈ 1140 µM); MIC ([2]; MRSA strain B337919, read-out: MIC): 200 µg/mL (≈ 1140 µM); MIC (P. aeruginosa; Pseudomonas aeruginosa): 2000 µg/mL (≈ 11400 µM); MIC (C. albicans; Candida albicans, read-out: MIC): 400 µg/mL (≈ 2280 µM); MIC (E. coli; [9]): 1750 µg/mL (≈ 9990 µM); MIC (ESBL E. coli; [9]): 1750 µg/mL (≈ 9990 µM); MIC (ESBL K. pneumoniae; [10]): 2000 µg/mL (≈ 11400 µM); MIC (K. pneumoniae; [10]): 400 µg/mL (≈ 2280 µM); % of living HepG2 cells ([3]; compound 0.2mg/ml): 7.27 ± 1.77%; % of living Caco2 cells ([4]; compound 0.2mg/ml): 8.61%; % of metabolic active Caco2 cells (Caco2 cells; compound 0.2mg/ml): 103.64%; % of metabolic active HepG2 cells (HepG2 cells; compound 0.2mg/ml): 108.28%
